Each structure is given as a SMILES string.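 Step 1: Grow cells in 96-well plates. Step 2: Expose to compound for 48 hours at 5 concentrations. Step 3: Interpolate endpoints linearly; if unreached, use highest concentration. GI50 is the concentration that inhibits growth by half. Definition used: TGI = concentration required for complete inhibition of growth.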

What all share (test): NCI anticancer screen, dose series, 48 h
Experiment [1] relates to CAKI-1 renal.
The subject of experiment [2] is A549 NSCLC.
Experiment [3] concerns U251 CNS.
Experiment [4] has as its system HOP-92 NSCLC.
Experiment [5] has as its system SF-539 CNS.
For experiment [6], the system named is MALME-3M melanoma.
Experiment [7] relates to SNB-75 CNS.
Experiment [8] concerns NCI-H226 lung.
Experiment [9] concerns HCC-2998 colon.
The test system of experiment [10] is RXF 393 renal.

`N[C@@H]1CCCC[C@@H]1N.O=P([O-])([O-])CN(CP(=O)([O-])[O-])CP(=O)([O-])[O-].[Pt+2]`: the GI50 in experiment [1], in [2], in experiment [3], in [4], in experiment [5] and in experiment [6] was above 100 µM throughout. Further, the GI50 in experiment [7], in [8] and in [9] was above 100 µM each time. Further, the TGI in experiment [1], in experiment [2], in experiment [3], in experiment [4], in experiment [5] and in [6] was above 100 µM in each case. Besides, the TGI in experiment [7], in experiment [8] and in experiment [9] was above 100 µM each time.
Consider `O=C(Cc1csc2nc(-c3ccc(Br)cc3)cn12)N/N=C/c1ccc(O)cc1`, for which the GI50 in experiment [1] was 14.9 µM; in [2] it was 10.6 µM; in [3], 21.3 µM; in experiment [4] it was 18.9 µM; in experiment [5], 18.4 µM; in experiment [7], above 100 µM. The GI50 in [9] is 14.6 µM. For the same molecule, the TGI is 49.3 µM in experiment [1]; 33.7 µM in [2]; above 100 µM in experiment [3]; 68.9 µM in experiment [4]; 46.5 µM in experiment [5]; above 100 µM in [7]. This molecule also gave a TGI in [9] of 29.4 µM.
`COc1ccc(CCN=C2CCC(C(=O)NCCc3ccc(OC)c(OC)c3)N2)cc1OC` (stereo not given): the TGI in [1], in experiment [2], in [3], in experiment [4], in [6] and in experiment [7] was above 100 µM each time. The TGI in experiment [8] and in experiment [9] was above 100 µM each time.
Take `COc1nc(NC2OC(COC(C)=O)C(OC(C)=O)C(OC(C)=O)C2OC(C)=O)c(-c2csc(N)n2)c(=O)n1C` (stereo not given): the TGI in experiment [1] was above 100 µM; in [2] it was above 100 µM; in [3], above 100 µM; in [4], above 100 µM; in experiment [5], above 100 µM; in experiment [6] it was 78.8 µM. Besides, the values for the TGI in experiment [7] and in experiment [8] were 51.8 µM and above 100 µM, respectively.
Regarding `CC1CC2(C)CC(=O)C1C1C(=O)N(CCN3CCCCC3)C(=O)C12` (stereo not given), the GI50 in experiment [1], in [2], in [3], in experiment [4], in experiment [5] and in experiment [6] was above 100 µM each time. The GI50 in [7], in experiment [8] and in [9] was above 100 µM throughout. The TGI in experiment [1], in [2], in [3], in [4], in [5] and in [6] was above 100 µM throughout. The TGI in [7], in [8] and in experiment [9] was above 100 µM each time.
In the case of `C[C@@H]1C[C@]2(C[C@@H](C)C3[C@@H](CC4(C)[C@@H]5CCC6C(C)(C)OC(=O)C=C[C@]67C[C@@]5(CC[C@]34C)OO7)O2)OC1=O` (stereo not given in full), the TGI was above 100 µM in experiment [2]; above 100 µM in experiment [3]; above 100 µM in [10]; above 100 µM in experiment [5]; above 100 µM in experiment [6]; 56.9 µM in experiment [7]. Also, the TGI in experiment [8] and in experiment [9] was above 100 µM each time.
With `C/C=C1\C(=O)OC2CCN3CCC(COC(=O)C(C)(O)C(C)C1O)C23` (stereo not given), the TGI in [1], in experiment [2], in experiment [3], in experiment [4], in experiment [5] and in experiment [6] was above 100 µM each time. Also, the TGI in [7], in [8] and in [9] was above 100 µM in each case.
On to `O=C1c2ccccc2C(=O)c2nc3ccc(Cl)cc3cc21`, for which the TGI in experiment [1], in experiment [2], in [3], in experiment [4], in [5] and in experiment [6] was above 100 µM in each case. The TGI in [7], in experiment [8] and in experiment [9] was above 100 µM throughout.
Consider `O=c1cc(-c2ccccn2)[nH]c2ccc(Cl)cc12`, for which the GI50 in [10] was 34 µM; in experiment [8], 46.5 µM. In addition, the TGI in experiment [10] is above 100 µM; in experiment [4] it was above 100 µM; in [5], above 100 µM; in experiment [6] it was 62.5 µM; in experiment [7] it was above 100 µM; in experiment [8], above 100 µM. This molecule registered a TGI in experiment [9] above 100 µM.
Turning to `CC(=O)OC1CC2C(=O)C(=O)C1(C)C2(C)C` (stereo not given), the TGI in [2], in [3], in experiment [4], in experiment [6], in experiment [7] and in experiment [8] was above 100 µM throughout. The same molecule came in with a TGI in [9] above 100 µM.
With `CSC1=NCC2(S1)c1ccccc1N(C(=O)OC(C)(C)C)C2N1CCCCC1` (stereo not given), the GI50 in experiment [2] is above 100 µM; in [10], 78 µM; in experiment [4], 51.5 µM; in experiment [5], above 100 µM; in experiment [6], 15.3 µM; in experiment [7], 31.7 µM. The results for the GI50 in experiment [8] and in experiment [9] were above 100 µM and 31 µM, respectively. In addition, the TGI in [2] was above 100 µM; in experiment [10] it was above 100 µM; in experiment [4], above 100 µM; in [5], above 100 µM; in [6] it was above 100 µM; in experiment [7] it was 88.4 µM. For the same molecule, the TGI in experiment [8] and in experiment [9] was above 100 µM throughout.
Take `CC1(C)CC[C@]2(C(N)=O)CC[C@]3(C)C(=CC[C@@H]4[C@@]5(C)C/C(=C/c6ccncc6)C(=O)C(C)(C)[C@@H]5CC[C@]43C)[C@@H]2C1`: the GI50 in [2] is 2.35 µM; in [3], 1.69 µM; in [10], 1.59 µM; in experiment [4] it was 1.76 µM; in [5], 1.81 µM; in experiment [6], 1.71 µM. The values for the GI50 in experiment [7] and in experiment [9] were 2.48 µM and 1.87 µM, respectively. The TGI was found to be 8.22 µM in experiment [2]; 3.27 µM in [3]; 3.05 µM in [10]; 4.77 µM in experiment [4]; 3.34 µM in experiment [5]; 3.27 µM in experiment [6]. The TGI amounted to 8.22 µM in experiment [7] and 3.45 µM in experiment [9].

Values taken from PubChem BioAssay (NCI).
